# Measurements taken from patent publication US20040224981A1, “Antibacterial methods and compositions” (priority 2003, published 2004).
# Structures can show the parent of a compound that is named as a salt. Where two headings read alike, the source gives them in different places.
# Assays:
# E. faecium = experiment: MIC against E. faecium; type: cell-based; conditions: Enterococcus faecium, ATCC33667
# Procedure: (§1) MRSi compound 5 alone and in combination with mupirocin was tested recent clinical isolates of E. faecalis (n=28) and E. faecium (n=23). Both the acetate salt and mupirocinate salts of MRSi compound 5 maintained potent activity against vancomycin-susceptible and—resistant enterococci (Tables 8, 9, and 10).
# [1] = tested on: S. aureus RN4220 (pYH4-MRS); experiment: Mode of action: MIC with MRS over-production; type: cell-based
# Procedure: The strain expresses high levels of MRS upon the addition of 0.01 μg/mL of anyhdrotetracycline.
# E. faecalis = experiment: MIC against E. faecalis; type: cell-based; conditions: Enterococcus faecalis, Table 8
# Procedure: The MRS inhibitor 4 alone and in combination with mupirocin (mupirocin salt and 1:1 combination) were tested against a collection of Gram-positive pathogens.
# as §1
# [2] = tested on: S. aureus, coagulase-negative staphylococci and S. pyogenes strains; experiment: Serial passage, whole panel of 19 isolates; type: cell-based; conditions: after 20 passages; observed with five of the 19 organisms tested
# Procedure: MRSi compound 5 (acetate salt), mupirocin and MRSi compound 5/mupirocin 1:1 combination were tested for development of resistance following serial passage using 19 isolates, including S. aureus, coagulase-negative staphylococci and S. pyogenes strains.
# S. aureus = experiment: MIC against S. aureus strains and clinical isolates (broth microdilution); type: cell-based, Staphylococcus aureus
# Procedure: were tested against a collection of clinical isolates of S. aureus including strains that were multi-resistant to mupirocin and to other agents such as gentamicin and oxacillin.
# The acetate and mupirocin salts of the MRS inhibitor compound 5 were tested against a collection of both low and high-level mupirocin resistant clinical isolates of S. aureus (Table 6).
# The bacterial strains were tested for susceptibility to mupirocin and MRSi compound 2 using the broth microdilution method in accordance with NCCLS guideline to determine their MICs.
# Briefly, the MIC and checkerboard titration assays were performed with strains in microtiter trays with cation-supplemented Mueller-Hinton broth (Difco). Inocula were prepared by suspending growth from blood agar plates in sterile saline to a density equivalent to that of a 0.5 McFarland standard and were diluted […] to produce a final inoculum of 5×10^5 CFU/ml. The trays were incubated aerobically overnight. Standard quality control strains were included with each run. Fractional inhibitory concentrations (FICs) were calculated as the MIC of drug A or B in combination/MIC of drug A or B alone, and the FIC index was obtained by adding the two FICs. FIC indices were interpreted as synergistic if the values were ≦0.5, additive or indifferent if the values were >0.5 to 4, and antagonistic if the values were >4.0.
# [3] = tested on: S. aureus ATCC 29213 and 31-1334; experiment: Selection of spontaneous resistant mutants (mutation frequency); type: cell-based, Staphylococcus aureus
# Procedure: Approximately, 10^9 bacteria were plated onto Mueller-Hinton agar supplemented with 10% horse blood and containing various concentrations of the test compounds alone and in combination. After 24 and 48 hours of incubation at 35° C., the bacterial colonies were counted and the frequencies of mutation were determined relative to the total viable count of organisms that were plated. Resistant clones were re-plated once on plates containing the same concentration of agent that was used for the selection.
# [4] = S. aureus RN4220 (pYH4-MRS), +aTC (MRS over-expression)
# [5] = ATCC 51299 / VRE, E. faecalis ATCC 51299 (VRE)
compound,measurement,setting,value
"CN[C@H](CC(C)C)C(=O)N[C@H]1C(=O)N[C@@H](CC(N)=O)C(=O)N[C@H]2C(=O)N[C@H]3C(=O)N[C@H](C(=O)N[C@H](C(=O)O)c4cc(O)cc(O)c4-c4cc3ccc4O)[C@H](O)c3ccc(c(Cl)c3)Oc3cc2cc(c3O[C@@H]2O[C@H](CO)[C@@H](O)[C@H](O)[C@H]2O[C@H]2C[C@](C)(N)[C@H](O)[C@H](C)O2)Oc2ccc(cc2Cl)[C@H]1O [Vancomycin, reference compound]",MIC,E. faecium,0.5 µg/mL
same,MIC,[1]; [4],0.5 µg/mL
same,MIC,[1]; Staphylococcus aureus,0.5 µg/mL
same,MIC,E. faecalis; [5],4 µg/mL
same,MIC,E. faecalis; E. faecalis 1,0.12 µg/mL
same,MIC,E. faecalis; E. faecalis 7,0.5 µg/mL
"C=C(F)c1sc(CNCCCNc2cc(=O)c3ccccc3[nH]2)c(C)c1Br [MRSi Cmpd 5, N-(4-bromo-5-(1-fluorovinyl)-3-methylthiophen-2-ylmethyl)-N′-(1H-quinolin-4-one)propane-1,3-diamine]",MICs of the most resistant isolates that could be selected,[2],16 µg/mL
same,increase in MIC on over-expression of MRS,"[1]; +aTC vs −aTC, 0.01 μg/mL anhydrotetracycline",8 fold
same,MIC,[1]; [4],1 µg/mL
same,MIC,"[1]; S. aureus RN4220 (pYH4-MRS), −aTC (no anhydrotetracycline)",0.12 µg/mL
CO[C@@H]1[C@@H](OC(N)=O)[C@@H](O)[C@H](Oc2ccc3c(O)c(NC(=O)c4ccc(O)c(CC=C(C)C)c4)c(=O)oc3c2C)OC1(C)C [Novobiocin],MIC,[1]; [4],0.25 µg/mL
same,MIC,[1]; Staphylococcus aureus,0.25 µg/mL
"Brc1cc(Br)c2c(c1)C(NCCCNc1nc3ncccc3[nH]1)CCN2 (stereo not shown) [MRSi cmpd 2, N-(6,8-Dibromo-1,2,3,4-tetrahydroquinolin-4-yl)-N′-(1H-imidazo[4,5-b]pyridine-2-yl)-propane-1,3-diamine dihydrochloride]",MIC,"S. aureus; Staphylococcus aureus, ATCC43300, S. aureus ATCC 43300 (ORSA), read-out: MIC",0.25 µg/mL
same,MIC,"S. aureus; Staphylococcus aureus, NRS 1 / VISA, S. aureus NRS1 (VISA)",0.25 µg/mL
same,MIC,"S. aureus; Staphylococcus aureus, NRS107, S. aureus NRS107 (HL Mup rest.), read-out: MIC",0.06 µg/mL
same,MIC,"S. aureus; Staphylococcus aureus, S. aureus 10-420 (LL Mup. Rest.), read-out: MIC",0.25 µg/mL
same,MIC,"S. aureus; Staphylococcus aureus, S. aureus 14-354 (LL Mup. Rest.), read-out: MIC",0.25 µg/mL
same,MIC,"S. aureus; Staphylococcus aureus, S. aureus 25-670 (HL Mup. Rest.), read-out: MIC",0.25 µg/mL
same,MIC,"S. aureus; Staphylococcus aureus, S. aureus 31-1334 (LL Mup Rest.), read-out: MIC",0.25 µg/mL
same,MIC,"S. aureus; Staphylococcus aureus, S. aureus 36-1298 (LL Mup. Rest.), read-out: MIC",0.06 µg/mL
same,MIC,"S. aureus; Staphylococcus aureus, S. aureus 87-2797 (HL Mup. Rest.), read-out: MIC",0.25 µg/mL
same,MIC,"S. aureus; Staphylococcus aureus, S. aureus 87-2797 (Mup. Susc.), read-out: MIC",0.25 µg/mL
same,MIC,"S. aureus; Staphylococcus aureus, S. aureus 101-100 (Mup. Susc.), read-out: MIC",0.12 µg/mL
same,MIC,"S. aureus; Staphylococcus aureus, S. aureus LZ1 (HL Mup rest.), read-out: MIC",0.12 µg/mL
same,MIC,"S. aureus; Staphylococcus aureus, S. aureus LZ6 (HL Mup rest.), read-out: MIC",0.25 µg/mL
same,MIC,"S. aureus; Staphylococcus aureus, S. aureus LZ8 (LL Mup. Rest.), read-out: MIC",0.25 µg/mL
same,MIC,"S. aureus; Staphylococcus aureus, S. aureus LZ9, read-out: MIC",0.25 µg/mL
same,MIC,"S. aureus; Staphylococcus aureus, S. aureus LZ10, read-out: MIC",0.25 µg/mL
same,MIC,"S. aureus; Staphylococcus aureus, S. aureus Miles Hall, read-out: MIC",0.12 µg/mL
same,MIC,"S. aureus; Staphylococcus aureus, S. aureus Oxford, read-out: MIC",0.12 µg/mL
same,MIC90,"S. aureus; Staphylococcus aureus, all S. aureus strains of Table 1, read-out: MIC 90",0.25 µg/mL
same,MIC,"S. aureus; Table 12, S. aureus 25-670, high level mupirocin-resistant, agent alone",0.5 8 g/mL
same,MIC Range,S. aureus; all S. aureus strains of Table 1 (mupirocin-susceptible and -resistant),0.06 to 0.25 µg/mL
same,MIC,E. faecium,≤ 0.004 µg/mL
same,MIC,E. faecalis; [5],0.03 µg/mL
same,MIC,E. faecalis; E. faecalis 1,0.015 µg/mL
same,MIC,E. faecalis; E. faecalis 7,0.06 µg/mL
same,Mutation Frequency (48 hours),"[3]; S. aureus 31-1334 (low level mupirocin-resistant), selecting concentration 2 x MIC",3.3 × 10^−7
same,Mutation Frequency (48 hours),"[3]; S. aureus 31-1334 (low level mupirocin-resistant), selecting concentration 4 x MIC",6.8 × 10^−8
same,Mutation Frequency (48 hours),"[3]; S. aureus 31-1334 (low level mupirocin-resistant), selecting concentration 8 x MIC",1.9 × 10^−8
same,Mutation Frequency (48 hours),"[3]; S. aureus ATCC 29213 (mupirocin susceptible), selecting concentration 2 x MIC",1.01 × 10^−7
same,Mutation Frequency (48 hours),"[3]; S. aureus ATCC 29213 (mupirocin susceptible), selecting concentration 4 x MIC",3.14 × 10^−8
same,Mutation Frequency (48 hours),"[3]; S. aureus ATCC 29213 (mupirocin susceptible), selecting concentration 8 x MIC",2.07 × 10^−8
